{
  "source": "paper PMC3663906",
  "about": "(Journal of medicinal chemistry, 2013)",
  "key": {"[1]": {"test_system": "endocytosis of transferrin in T. brucei", "details": "cited from earlier work"}, "[2]": {"assay": "Mouse oral pharmacokinetic study", "type": "in vivo"}, "T. brucei brucei CA427": {"test_system": "T. brucei brucei CA427", "assay": "Mouse model of HAT"}, "[3]": {"test_system": "endocytosis of transferrin in T. brucei", "assay": "Receptor-mediated endocytosis of transferrin in the trypanosome"}, "T. brucei [4]": {"test_system": "T. brucei", "assay": "Trypanosome cell cycle analysis"}, "HepG2 cells": {"test_system": "HepG2 cells", "assay": "HepG2 cell toxicity assay", "type": "cell-based", "details": "Homo sapiens, HepG2, read-out: HepG2 IC50, MTT cytotoxicity, Tables 5 and 6"}, "T. brucei [5]": {"test_system": "T. brucei", "details": "cited from earlier work"}},
  "data": [
    {"smiles": "CS(=O)(=O)CCNCc1ccc(-c2ccc3ncnc(Nc4ccc(OCc5cccc(F)c5)c(Cl)c4)c3c2)o1", "note": "[Compound 1, lapatinib]", "values": [
      {"measurement": "effect on endocytosis of transferrin in the trypanosome", "setting": "[1]", "result": "inhibited endocytosis of transferrin"}
    ]},
    {"smiles": "Fc1cccc(COc2ccc(Nc3ncnc4ccc(-c5cccc(N6CCOCC6)c5)cc34)cc2Cl)c1", "note": "[Compound 23a, N-(3-chloro-4-((3-fluorobenzyl)oxy)phenyl)-6-(3-morpholinophenyl)quinazolin-4-amine]", "values": [
      {"measurement": "oral bioavailability", "setting": "[2]", "result": "orally bioavailable"},
      {"measurement": "survival on day 8 (all untreated mice had died)", "setting": "T. brucei brucei CA427; 10 mg/kg twice per day i.p.", "result": "all alive"},
      {"measurement": "survival", "setting": "T. brucei brucei CA427; 10 mg/kg twice per day oral", "result": "died in the same time frame as control mice"},
      {"measurement": "toxicity in multi-day regimen", "setting": "T. brucei brucei CA427; mouse, 40 mg/kg dose once per day", "result": "drug-related toxicity was observed"},
      {"measurement": "effect on receptor-mediated endocytosis of transferrin", "setting": "[3]", "result": "no effect"},
      {"measurement": "effect on the cell cycle", "setting": "T. brucei [4]", "result": "blocks duplication of the kinetoplast and arrests cytokinesis, without inhibiting division of the trypanosome nucleus"},
      {"measurement": "fraction of cells containing two nuclei and one kinetoplast (1K2N)", "setting": "T. brucei [4]; DAPI microscopy", "result": "selectively increased"},
      {"measurement": "number of cells containing one nucleus (1K1N, 1Ke1N)", "setting": "T. brucei [4]; DAPI microscopy", "result": "reduced"}
    ]},
    {"smiles": "O=S(=O)(c1cccc(-c2ccc3ncnc(Nc4ccc(OCc5cccc(F)c5)c(Cl)c4)c3c2)c1)N1CCOCC1", "note": "[Compound 10k, N-(3-chloro-4-((3-fluorobenzyl)oxy)phenyl)-6-(3-(morpholinosulfonyl)phenyl)quinazolin-4-amine]", "values": [
      {"measurement": "IC50", "setting": "HepG2 cells", "result": "> 20", "unit": "µM"}
    ]},
    {"smiles": "O=S(=O)(c1ccc(-c2ccc3ncnc(Nc4ccc(OCc5cccc(F)c5)c(Cl)c4)c3c2)cc1)N1CCCCC1", "note": "[Compound 10l, N-(3-chloro-4-((3-fluorobenzyl)oxy)phenyl)-6-(4-(piperidin-1-ylsulfonyl)phenyl)quinazolin-4-amine]", "values": [
      {"measurement": "IC50", "setting": "HepG2 cells", "result": "> 20", "unit": "µM"}
    ]},
    {"smiles": "O=S(=O)(c1cccc(-c2ccc3ncnc(Nc4ccc(OCc5cccc(F)c5)c(Cl)c4)c3c2)c1)N1CCCCC1", "note": "[Compound 10m, N-(3-chloro-4-((3-fluorobenzyl)oxy)phenyl)-6-(3-(piperidin-1-ylsulfonyl)phenyl)quinazolin-4-amine]", "values": [
      {"measurement": "IC50", "setting": "HepG2 cells", "result": "> 20", "unit": "µM"}
    ]},
    {"smiles": "C=CC(=O)Nc1cc2c(Nc3ccc(F)c(Cl)c3)ncnc2cc1OCCCN1CCOCC1", "note": "[canertinib]", "values": [
      {"measurement": "EC50 for killing T. brucei", "setting": "T. brucei [5]", "result": "low micromolar range"}
    ]}
  ]
}
